The source of these data is patent publication US12617783B2, “Heterocyclic GLP-1R agonists” (BIOMEA FUSION, INC., priority 2024, dated 2026).

As usually defined, the EC50 is the concentration that produces a half-maximal response.

The structures appear in SMILES notation.

T1 sequence (P43220 24-463): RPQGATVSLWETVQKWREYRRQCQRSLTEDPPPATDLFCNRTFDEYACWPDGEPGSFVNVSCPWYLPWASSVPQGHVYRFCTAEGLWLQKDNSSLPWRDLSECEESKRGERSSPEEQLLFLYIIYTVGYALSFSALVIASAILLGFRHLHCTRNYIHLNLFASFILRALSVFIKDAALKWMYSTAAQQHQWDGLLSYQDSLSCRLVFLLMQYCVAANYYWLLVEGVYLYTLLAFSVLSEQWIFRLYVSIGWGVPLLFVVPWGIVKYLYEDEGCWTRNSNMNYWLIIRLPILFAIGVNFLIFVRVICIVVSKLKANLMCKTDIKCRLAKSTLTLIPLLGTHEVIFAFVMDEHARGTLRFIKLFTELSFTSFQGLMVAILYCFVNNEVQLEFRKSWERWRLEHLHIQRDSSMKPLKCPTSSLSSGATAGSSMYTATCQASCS

The test has as its target T1, human GLP-1R (Homo sapiens, UniProt P43220).
T1 construct: host or cells: HEK293
In words: GLP-1R cAMP assay (Example B1a, HTRF, 30 min at room temperature). In kind it is cell-based. The settings on record: cAMP accumulation in HEK293 expressing human GLP-1R, no BETP, 30 min room temperature (Method B1a, compounds ID 1-609), Table 1; read-out: EC50. The procedure, abridged:
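Competitive HTRF read-out of cAMP after 30 min room-temperature stimulation, BETP absent, of human GLP-1R-HEK293 cells (1,000/well) in HEPES buffer with 500 μM IBMX and 0.1% BSA. Activation normalised to GLP-1(7-37) positive control. EC50 from 4-parameter non-linear regression.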
A general note: Cyclic AMP is a second messenger, typically raised through Gs and lowered through Gi signalling.
For the molecule `Cc1cc(-n2nc3c(c2-n2ccn(-c4ccc5c(cnn5C)c4F)c2=O)[C@@H]2CC[C@H](C3)N2C(=O)c2cc3cc(C4CCOC(C)(C)C4)cnc3n2[C@@]2(c3noc(=O)[nH]3)C[C@@H]2C)cc(C)c1F` (stereo partly drawn) [Compound 311, 3-((1S,2S)-1-(5-(2,2-dimethyltetrahydro-2H-pyran-4-yl)-2-((4S,7R)-3-(3-(4-fluoro-1-methyl-1H-indazol-5-yl)-2-oxo-2,3-dihydro-1H-imidazol-1-yl)-2-(4-fluoro-3,5-dimethylphenyl)-2,4,5,6,7,8-hexahydro-4,7-epiminocyclohepta [c]pyrazole-9-carbonyl)-1H-pyrrolo[2,3-b]pyridin-1-yl)-2-methylcyclopropyl)-1,2,4-oxadiazol-5(4H)-one], the EC50 is 57.3 nM. Under `Cc1cc(-n2nc3c(c2-n2ccn(-c4ccc5c(cnn5C)c4F)c2=O)CN(S(=O)(=O)c2cc4cc(C5CCOC(C)(C)C5)ccc4n2[C@@]2(c4noc(=O)[nH]4)C[C@@H]2C)CCC3)cc(C)c1F` (stereo partly drawn) [Compound 508, 3-[(1S,2S)-1-[5-(2,2-dimethyltetrahydropyran-4-yl)-2-[[2-(4-fluoro-3,5-dimethyl-phenyl)-3-[3-(4-fluoro-1-methyl-indazol-5-yl)-2-oxo-imidazol-1-yl]-4,6,7,8-tetrahydropyrazolo[4,3-c]azepin-5-yl]sulfonyl]indol-1-yl]-2-methyl-cyclopropyl]-4H-1,2,4-oxadiazol-5-one] stands at least 10000 nM. The value for `Cc1cc(-n2nc3c(c2-n2ccn(-c4ccc5c(cnn5C)c4F)c2=O)[C@@H]2CCC[C@H](C3)N2S(=O)(=O)c2cc3cc(N4CCOC5(CC5)C4)ccc3n2[C@@]2(c3noc(=O)[nH]3)C[C@@H]2C)cc(C)c1F` [Compound 535, 3-[(1S,2S)-1-[2-[[(1S,8R)-4-(4-fluoro-3,5-dimethyl-phenyl)-3-[3-(4-fluoro-1-methyl-indazol-5-yl)-2-oxo-imidazol-1-yl]-4,5,12-triazatricyclo[6.3.1.02,6]dodeca-2,5-dien-12-yl]sulfonyl]-5-(4-oxa-7-azaspiro[2.5]octan-7-yl)indol-1-yl]-2-methyl-cyclopropyl]-4H-1,2,4-oxadiazol-5-one] was 1890 nM; that for `Cc1cc(-n2nc3c(c2-n2ccn(-c4ccc5c(cnn5C)c4F)c2=O)[C@@H]2CC[C@H](C3)N2C(=O)c2cc3sc([C@H]4CCOC(C)(C)C4)nc3n2[C@@]2(c3noc(=O)[nH]3)C[C@@H]2C)cc(C)c1F` [Compound 306, 3-[(1S,2S)-1-[2-[(4S)-2,2-dimethyltetrahydropyran-4-yl]-5-[(1S,8R)-4-(4-fluoro-3,5-dimethyl-phenyl)-3-[3-(4-fluoro-1-methyl-indazol-5-yl)-2-oxo-imidazol-1-yl]-4,5,11-triazatricyclo[6.2.1.02,6]undeca-2,5-diene-11-carbonyl]pyrrolo[2,3-d]thiazol-4-yl]-2-methyl-cyclopropyl]-4H-1,2,4-oxadiazol-5-one] was 2450 nM. The value for `Cc1cc(-n2nc3c(c2-n2ccn(-c4ccc5c(cnn5C)c4F)c2=O)[C@@H]2CC[C@H](C3)N2C(=O)c2cc3cc([C@H]4CCOC(C)(C)C4)ccc3n2[C@@]2(CNC(=O)CO)C[C@@H]2C)cc(C)c1F` [Compound 241, N-[[(1S,2S)-1-[5-[(4S)-2,2-dimethyltetrahydropyran-4-yl]-2-[(1S,8R)-4-(4-fluoro-3,5-dimethyl-phenyl)-3-[3-(4-fluoro-1-methyl-indazol-5-yl)-2-oxo-imidazol-1-yl]-4,5,11-triazatricyclo[6.2.1.02,6]undeca-2,5-diene-11-carbonyl]indol-1-yl]-2-methyl-cyclopropyl]methyl]-2-hydroxy-acetamide] was 641 nM. With `Cc1cc(-n2nc3c(c2-n2ccn(-c4ccc5c(cnn5C)c4F)c2=O)[C@H]2CC[C@@H](C3)N2C(=O)c2cc3cc([C@H]4CCOC5(CC5)C4)ccc3n2[C@]2(c3noc(=O)[nH]3)C[C@@H]2C)cc(C)c1F` [Compound 531, 3-[(1R,2S)-1-[2-[(1R,8S)-4-(4-fluoro-3,5-dimethyl-phenyl)-3-[3-(4-fluoro-1-methyl-indazol-5-yl)-2-oxo-imidazol-1-yl]-4,5,11-triazatricyclo[6.2.1.02,6]undeca-2,5-diene-11-carbonyl]-5-[(7S)-4-oxaspiro[2.5]octan-7-yl]indol-1-yl]-2-methyl-cyclopropyl]-4H-1,2,4-oxadiazol-5-one], the EC50 is at least 10000 nM. The value for `Cc1cc(-n2nc3c(c2-n2ccn(-c4ccc5c(cnn5C)c4F)c2=O)C2CCC([C@H]3F)N2C(=O)c2cc3cc([C@H]4CCOC(C)(C)C4)ccc3n2[C@@]2(c3noc(=O)[nH]3)C[C@@H]2C)cc(C)c1F` (stereo partly drawn) [Compound 511, 3-[(1S,2S)-1-[5-[(4S)-2,2-dimethyltetrahydropyran-4-yl]-2-[(7R)-7-fluoro-4-(4-fluoro-3,5-dimethyl-phenyl)-3-[3-(4-fluoro-1-methyl-indazol-5-yl)-2-oxo-imidazol-1-yl]-4,5,11-triazatricyclo[6.2.1.02,6]undeca-2,5-diene-11-carbonyl]indol-1-yl]-2-methyl-cyclopropyl]-4H-1,2,4-oxadiazol-5-one] was 588 nM; that for `Cc1cc(-n2nc3c(c2-n2ccn(-c4ccc5c(cnn5C)c4F)c2=O)[C@H](C)N(C(=O)c2cc4cc([C@H]5CCOC6(CC6)C5)ccc4n2[C@@]2(c4noc(=O)[nH]4)C[C@@H]2C)CCC3)cc(C)c1F` [Compound 606, 3-((1S,2S)-1-(2-((S)-3-(3-(4-fluoro-1-methyl-1H-indazol-5-yl)-2-oxo-2,3-dihydro-1H-imidazol-1-yl)-2-(4-fluoro-3,5-dimethylphenyl)-4-methyl-2,4,5,6,7,8-hexahydropyrazolo[4,3-c]azepine-5-carbonyl)-5-((S)-4-oxaspiro[2.5]octan-7-yl)-1H-indol-1-yl)-2-methylcyclopropyl)-1,2,4-oxadiazol-5 (4H)-one] was 80.4 nM. For the molecule `CCP(=O)(CC)c1ccc(-n2ccn(-c3c4c(nn3-c3cc(C)c(F)c(C)c3)C[C@H]3CC[C@@H]4N3C(=O)c3cc4cc(C5CCOCC5)ccc4n3[C@@]3(c4noc(=O)[nH]4)C[C@@H]3C)c2=O)cc1NC` [Compound 216, 3-[(1S,2S)-1-[2-[(1S,8R)-3-[3-[4-diethylphosphoryl-3-(methylamino)phenyl]-2-oxo-imidazol-1-yl]-4-(4-fluoro-3,5-dimethyl-phenyl)-4,5,11-triazatricyclo[6.2.1.02,6]undeca-2,5-diene-11-carbonyl]-5-tetrahydropyran-4-yl-indol-1-yl]-2-methyl-cyclopropyl]-4H-1,2,4-oxadiazol-5-one], the EC50 was 233 nM. Under `Cc1cc(-n2nc3c(c2-n2ccn(-c4ccc5c(cnn5C)c4F)c2=O)[C@@H]2CC[C@H](C3)N2C(=O)c2cc3c(=O)n([C@H]4CCOC(C)(C)C4)ccc3n2[C@@]2(c3noc(=O)[nH]3)C[C@@H]2C)cc(C)c1F` [Compound 238, 3-[(1S,2S)-1-[5-[(4S)-2,2-dimethyltetrahydropyran-4-yl]-2-[(1S,8R)-4-(4-fluoro-3,5-dimethyl-phenyl)-3-[3-(4-fluoro-1-methyl-indazol-5-yl)-2-oxo-imidazol-1-yl]-4,5,11-triazatricyclo[6.2.1.02,6]undeca-2,5-diene-11-carbonyl]-4-oxo-pyrrolo[3,2-c]pyridin-1-yl]-2-methyl-cyclopropyl]-4H-1,2,4-oxadiazol-5-one] stands over 10000 nM; under `Cc1cc(-n2nc3c(c2-n2ccn(-c4ccc5c(cnn5C)c4)c2=O)[C@@H]2CC[C@H](C3)N2C(=O)c2cc3cc([C@H]4CCOC(C)(C)C4)ccc3n2[C@@]2(c3noc(=O)[nH]3)C[C@@H]2C)cc(C)c1F` [Compound 302, 3-((1S,2S)-1-(5-((S)-2,2-dimethyltetrahydro-2H-pyran-4-yl)-2-((4S,7R)-2-(4-fluoro-3,5-dimethylphenyl)-3-(3-(1-methyl-1H-indazol-5-yl)-2-oxo-2,3-dihydro-1H-imidazol-1-yl)-2,4,5,6,7,8-hexahydro-4,7-epiminocyclohepta [c]pyrazole-9-carbonyl)-1H-indol-1-yl)-2-methylcyclopropyl)-1,2,4-oxadiazol-5 (4H)-one], 52.9 nM; under `Cc1cc(-n2nc3c(c2-n2ccn(-c4ccc5ccncc5c4F)c2=O)[C@@H]2CCC[C@H](C3)N2S(=O)(=O)c2cc3cc([C@H]4CCOC(C)(C)C4)ccc3n2[C@]2(c3noc(=O)[nH]3)C[C@@H]2C)cc(C)c1F` [Compound 605, 3-[(1R,2S)-1-[5-[(4S)-2,2-dimethyltetrahydropyran-4-yl]-2-[[(1S,8R)-4-(4-fluoro-3,5-dimethyl-phenyl)-3-[3-(8-fluoro-7-isoquinolyl)-2-oxo-imidazol-1-yl]-4,5,12-triazatricyclo[6.3.1.02,6]dodeca-2,5-dien-12-yl]sulfonyl]indol-1-yl]-2-methyl-cyclopropyl]-4H-1,2,4-oxadiazol-5-one], at least 10000 nM. For the molecule `CC(=O)NC[C@]1(n2c(C(=O)N3[C@@H]4CC[C@H]3c3c(nn(-c5cc(C)c(F)c(C)c5)c3-n3ccn(-c5ccc6c(cnn6C)c5F)c3=O)C4)cc3cc([C@H]4CCOC(C)(C)C4)ccc32)C[C@@H]1C` [Compound 243, N-[[(1S,2S)-1-[5-[(4S)-2,2-dimethyltetrahydropyran-4-yl]-2-[(1S,8R)-4-(4-fluoro-3,5-dimethyl-phenyl)-3-[3-(4-fluoro-1-methyl-indazol-5-yl)-2-oxo-imidazol-1-yl]-4,5,11-triazatricyclo[6.2.1.02,6]undeca-2,5-diene-11-carbonyl]indol-1-yl]-2-methyl-cyclopropyl]methyl]acetamide], the EC50 is 757 nM. Take `Cc1cc(-n2nc3c(c2-n2ccn(-c4ccc5c(cnn5C)c4F)c2=O)[C@@H]2CC[C@H](C3)N2C(=O)c2nc3cc(C4CCOC(C)(C)C4)ccc3n2C2(c3noc(=O)[nH]3)CC2)cc(C)c1F` (stereo partly drawn) [Compound 130, 3-[1-[5-(2,2-dimethyltetrahydropyran-4-yl)-2-[(1S,8R)-4-(4-fluoro-3,5-dimethyl-phenyl)-3-[3-(4-fluoro-1-methyl-indazol-5-yl)-2-oxo-imidazol-1-yl]-4,5,11-triazatricyclo[6.2.1.02,6]undeca-2,5-diene-11-carbonyl]benzimidazol-1-yl]cyclopropyl]-4H-1,2,4-oxadiazol-5-one]: the EC50 is over 10000 nM.
